Measurements taken from patent publication US7304093B2, “Ketone compounds and compositions for cholesterol management and related uses” (Esperion Therapeutics, Inc., priority 2000, dated 2007).

What was measured:
[1] = test system: primary rat hepatocytes; assay: Inhibition of lipid synthesis ([1-14C]-acetate incorporation) in primary cultures of rat hepatocytes; format: cell-based; conditions: Hepatocyte, 4 h incubation with [1-14C]-acetate, Table 7, ranges: confidence of estimate insufficient to assign a value
Summary of the method: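 Monolayer primary hepatocytes from male Sprague-Dawley rats, serum-free overnight, were incubated 4 h with 0, 1, 3, 10, 30, 100 or 300 μM compound and 0.25 μCi [1-14C]-acetate per well. Total lipid synthesis was read as radioactivity in the lipid phase extracted into scintillant.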

| melting point | Compound | IC50 [1] |
| --- | --- | --- |
| – | CC(C)(CO)CCCCC(=O)CCCCC(C)(C)CO [Compound 214c, 1,13-Dihydroxy-2,2,12,12-tetramethyltridecan-7-one] | 4000 nM |
| 60 to 61.5 °C | CC(C)(CCCCC(=O)CCCCC(C)(C)C(=O)O)C(=O)O [Compound 210c, 7-Oxo-2,2,12,12-tetramethyltridecanedioic acid] | 3000 nM |
| – | CC(C)(CCCCCC(=O)CCCCCC(C)(C)C(=O)O)C(=O)O [Compound 210g, 2,2,14,14-Tetramethyl-8-oxopentadecanedioic acid] | 3000 nM |
